In PubChem BioAssay AID1845203 (Molecular Pharmacology Branch, DTP, NCI, 2023):

Test system: G-401 tumor spheroids, viability % test/control
Assay: Anticancer human tumor G-401 cell line growth inhibition;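 also: spheroids exposed to compound for 7 days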;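 as to viability, T/C: 100% = DMSO vehicle-treated spheroids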
Conditions: spheroids with HUVEC and MSC; for IC50: curve of first compound; for viability, T/C: stronger effect = lower value
How it was run: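 Complex tumor spheroids combined malignant cells with endothelial cells and mesenchymal stem cells. DNA-damaging drugs and DNA repair inhibitors were tested alone and in combination, at half-log dilutions down from clinical Cmax (top 10 microM if Cmax unknown), 0.25% DMSO final.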

[1] = second compound 1 µM, first compound 0.0316 µM
[2] = second compound 1 µM, first compound 0.1 µM
[3] = second compound 1 µM, first compound 0.316 µM
[4] = second compound 1 µM, first compound 1 µM
[5] = second compound 1 µM, first compound 3.16 µM
[6] = second compound 1 µM, first compound 10 µM
[7] = second compound 3.16 µM, first compound 0.0316 µM
[8] = second compound 3.16 µM, first compound 0.1 µM
[9] = second compound 3.16 µM, first compound 0.316 µM
[10] = second compound 3.16 µM, first compound 1 µM
[11] = second compound 3.16 µM, first compound 3.16 µM
[12] = second compound 3.16 µM, first compound 10 µM
[13] = second compound 10 µM, first compound 0.0316 µM
[14] = second compound 10 µM, first compound 0.1 µM
[15] = second compound 10 µM, first compound 0.316 µM
[16] = second compound 10 µM, first compound 1 µM
[17] = second compound 10 µM, first compound 3.16 µM
[18] = second compound 10 µM, first compound 10 µM
[19] = second compound 31.6 µM, first compound 0.0316 µM
[20] = second compound 31.6 µM, first compound 0.1 µM
[21] = second compound 31.6 µM, first compound 0.316 µM
[22] = second compound 31.6 µM, first compound 1 µM
[23] = second compound 31.6 µM, first compound 3.16 µM
[24] = second compound 31.6 µM, first compound 10 µM
[25] = second compound 100 µM, first compound 0.0316 µM
[26] = second compound 100 µM, first compound 0.1 µM
[27] = second compound 100 µM, first compound 0.316 µM
[28] = second compound 100 µM, first compound 1 µM
[29] = second compound 100 µM, first compound 3.16 µM
[30] = second compound 100 µM, first compound 10 µM

| Compound | IC50 (second compound 1 µM) | IC50 (second compound 3.16 µM) | IC50 (second compound 10 µM) | IC50 (second compound 31.6 µM) | IC50 (second compound 100 µM) | viability, T/C [1] | viability, T/C [2] | viability, T/C [3] | viability, T/C [4] | viability, T/C [5] | viability, T/C [6] | viability, T/C [7] | viability, T/C [8] | viability, T/C [9] | viability, T/C [10] | viability, T/C [11] | viability, T/C [12] | viability, T/C [13] | viability, T/C [14] | viability, T/C [15] | further results |
| --- | --- | --- | --- | --- | --- | --- | --- | --- | --- | --- | --- | --- | --- | --- | --- | --- | --- | --- | --- | --- | --- |
| CC(C)n1c(=O)n(C)c2cnc3cc(F)c(-c4ccc(OCCCN5CCCCC5)nc4)cc3c21 + Cn1nnc2c(C(N)=O)ncn2c1=O | > 10000 nM | > 10000 nM | > 10000 nM | > 10000 nM | > 10000 nM | 99.9% | 104% | 102% | 104% | 103% | 76.5% | 81.6% | 102% | 102% | 102% | 99.4% | 83.6% | 105% | 98.9% | 97.5% | viability, T/C [16]: 103%; viability, T/C [17]: 101%; viability, T/C [18]: 66.2%; viability, T/C [19]: 97.8%; viability, T/C [20]: 95.4%; viability, T/C [21]: 97.7%; viability, T/C [22]: 96.3%; viability, T/C [23]: 90.4%; viability, T/C [24]: 62.8%; viability, T/C [25]: 89.6%; viability, T/C [26]: 92.5%; viability, T/C [27]: 86.6%; viability, T/C [28]: 88%; viability, T/C [29]: 91.6%; viability, T/C [30]: 80.1% |
| CC1COCCN1c1cc(-c2ccnn2C)c2ccnc(-c3ccn[nH]3)c2n1 (stereo not given) + Cn1nnc2c(C(N)=O)ncn2c1=O | 76.9 nM | 86.6 nM | 79.7 nM | 70 nM | 55.6 nM | 76.3% | 42.1% | 22.9% | 15.9% | 16.1% | 20% | 79.8% | 45.6% | 24.9% | 16.8% | 17.4% | 19.8% | 76% | 43.6% | 21.5% | viability, T/C [16]: 15.7%; viability, T/C [17]: 16.4%; viability, T/C [18]: 18.8%; viability, T/C [19]: 74.5%; viability, T/C [20]: 39%; viability, T/C [21]: 18%; viability, T/C [22]: 15.4%; viability, T/C [23]: 16.2%; viability, T/C [24]: 18.5%; viability, T/C [25]: 66%; viability, T/C [26]: 33.4%; viability, T/C [27]: 13.7%; viability, T/C [28]: 12.7%; viability, T/C [29]: 14.1%; viability, T/C [30]: 12% |
| COc1cc(C)[nH]c(=O)c1CN1CCc2c(Cl)cc(C(OC)C3COC3)c(Cl)c2C1=O (stereo not given) + Cn1nnc2c(C(N)=O)ncn2c1=O | 160 nM | 201 nM | 145 nM | 208 nM | 203 nM | 88.4% | 57.9% | 38.3% | 31.7% | 21.3% | 27.6% | 86.3% | 63% | 41.2% | 30.4% | 24.3% | 23.5% | 81% | 59.9% | 25.5% | viability, T/C [16]: 33.8%; viability, T/C [17]: 30.4%; viability, T/C [18]: 27.2%; viability, T/C [19]: 81.8%; viability, T/C [20]: 60.8%; viability, T/C [21]: 43.9%; viability, T/C [22]: 32.2%; viability, T/C [23]: 27.9%; viability, T/C [24]: 23.4%; viability, T/C [25]: 88.3%; viability, T/C [26]: 62%; viability, T/C [27]: 43.3%; viability, T/C [28]: 29.6%; viability, T/C [29]: 30.8%; viability, T/C [30]: 24.7% |
| COc1ccc([C@@H](O)c2cc(-c3ncnc4cc(N5CCOCC5)ccc34)c(F)cc2Cl)nn1 + Cn1nnc2c(C(N)=O)ncn2c1=O | 1350 nM | 932 nM | 1260 nM | 1130 nM | 1020 nM | 103% | 95.7% | 88.1% | 60.9% | 21.9% | 9.93% | 96.6% | 90.8% | 91.4% | 46.3% | 20.6% | 10.6% | 105% | 96.1% | 90% | viability, T/C [16]: 57.8%; viability, T/C [17]: 20.9%; viability, T/C [18]: 10.8%; viability, T/C [19]: 90.9%; viability, T/C [20]: 88.8%; viability, T/C [21]: 85.1%; viability, T/C [22]: 52%; viability, T/C [23]: 22.5%; viability, T/C [24]: 10.8%; viability, T/C [25]: 89.5%; viability, T/C [26]: 87.4%; viability, T/C [27]: 82.9%; viability, T/C [28]: 49.5%; viability, T/C [29]: 19.1%; viability, T/C [30]: 8.51% |
| Cc1cc(C)c(CNC(=O)c2cc(-c3ccc(CN4CCOCC4)cc3)cc3c2cnn3C2CCCC2)c(=O)[nH]1 + Cn1nnc2c(C(N)=O)ncn2c1=O | > 10000 nM | > 10000 nM | > 10000 nM | > 10000 nM | 8790 nM | 111% | 106% | 95.8% | 105% | 87.9% | 62.5% | 103% | 104% | 105% | 93.3% | 80.6% | 55.8% | 103% | 99% | 97.1% | viability, T/C [16]: 90.1%; viability, T/C [17]: 82.6%; viability, T/C [18]: 53.5%; viability, T/C [19]: 94.3%; viability, T/C [20]: 94.4%; viability, T/C [21]: 92.9%; viability, T/C [22]: 91.5%; viability, T/C [23]: 80.5%; viability, T/C [24]: 52%; viability, T/C [25]: 96.5%; viability, T/C [26]: 103%; viability, T/C [27]: 94.3%; viability, T/C [28]: 93.6%; viability, T/C [29]: 74.2%; viability, T/C [30]: 46.9% |
| [2H]c1nc(C)nc([2H])c1-c1cc(NC[C@@H](C)c2cccc3c(C(=O)NC)ccnc23)ncn1 + Cn1nnc2c(C(N)=O)ncn2c1=O | > 10000 nM | > 10000 nM | > 10000 nM | > 10000 nM | > 10000 nM | 101% | 106% | 110% | 102% | 107% | 103% | 105% | 99.3% | 101% | 99.8% | 105% | 103% | 93% | 99.6% | 101% | viability, T/C [16]: 96%; viability, T/C [17]: 108%; viability, T/C [18]: 94%; viability, T/C [19]: 96.3%; viability, T/C [20]: 101%; viability, T/C [21]: 99.7%; viability, T/C [22]: 100%; viability, T/C [23]: 94.2%; viability, T/C [24]: 97.4%; viability, T/C [25]: 95.9%; viability, T/C [26]: 94.8%; viability, T/C [27]: 105%; viability, T/C [28]: 92.8%; viability, T/C [29]: 89.6%; viability, T/C [30]: 86.5% |
